Test results published in PubChem BioAssay (NCI).
Several values for one entry are separate records, joined by “and”; a condition that tells them apart may be missing. Equal values may be shown once.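 Assay format: 96-well plates, 48-hour exposure. GI50 is the concentration that inhibits growth by half. The concentration for full growth arrest is given as TGI.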

Legend:
Experiment in all cases: growth of human tumour cells (NCI), 48 h
COLO 205 colon = test system: COLO 205 colon
SR leukemia = test system: SR leukemia
HL-60(TB) leukemia = test system: HL-60(TB) leukemia
LOX IMVI melanoma = test system: LOX IMVI melanoma
EKVX NSCLC = test system: EKVX NSCLC
HT29 colon = test system: HT29 colon
786-0 renal = test system: 786-0 renal
DU-145 prostate = test system: DU-145 prostate
OVCAR-5 ovarian = test system: OVCAR-5 ovarian
ACHN renal = test system: ACHN renal

Compound	GI50 (COLO 205 colon)	TGI (COLO 205 colon)	GI50 (SR leukemia) [µM]	TGI (SR leukemia) [µM]	GI50 (HL-60(TB) leukemia)	TGI (HL-60(TB) leukemia) [µM]	GI50 (LOX IMVI melanoma)	TGI (LOX IMVI melanoma) [µM]	GI50 (EKVX NSCLC)	TGI (EKVX NSCLC)	GI50 (HT29 colon)	TGI (HT29 colon)	GI50 (786-0 renal) [µM]	TGI (786-0 renal) [µM]	GI50 (DU-145 prostate) [µM]	TGI (DU-145 prostate) [µM]	GI50 (OVCAR-5 ovarian)	TGI (OVCAR-5 ovarian)	GI50 (ACHN renal) [µM]	TGI (ACHN renal) [µM]
O=C1OCC2=C1C(c1cccc(Cl)c1)c1cc3c(cc1N2CCO)CCC3 (stereo not drawn)	0.0401 µM	0.309 µM	0.0609	21	0.0318 µM	0.353	0.0661 µM	13.8	0.295 µM	17.2 µM	0.0313 µM	0.095 µM	0.0485	10.8	0.0406	0.425	0.143 µM	18.2 µM	0.0846	14.6
O=C(/C=C/C=C/c1ccc2c(c1)OCO2)N/N=C\c1ccc(O)cc1O	2.31 µM	13.8 µM	0.571	> 100	3.58 µM	24.1	1.18 µM	10.1	2.05 µM	15.1 µM	3.78 µM	26.2 µM	2.89	11.8	3.46	22.3	3.87 µM	27.4 µM	1.99	13.1
CCOc1ccc2c(c1)C(=O)c1c-2n(CCCN=[N+]=[N-])c(=O)c2cc([N+](=O)[O-])ccc12	54.1 µM	> 100 µM	0.176	11.9	28.5 µM	> 100	3.02 µM	> 100	32.5 µM	> 100 µM	21.4 µM	> 100 µM	4.1	22.7	3.86	38.6	6.07 µM	> 100 µM	2.02	9.32
COc1ncc(-c2ccc3nccc(C#CCCCCC(=O)NO)c3c2)cc1NS(=O)(=O)c1ccc(F)cc1F	0.0897 µM	2.18 µM	0.146	4.24	0.0665 µM	3.06	0.0968 µM	1.9	0.0569 µM	4.09 µM	0.055 µM	10.5 µM	0.0819	3.68	0.134	12.6	0.0634 µM	8.2 µM	0.111	12.3
CC1[C@@H]2CC=C3[C@H]4CCC5Cc6nc7c(nc6C[C@@]5(C)C4CC(=O)[C@]32CO[C@]12OC(C)(C)CC2O)CC1CC[C@@H]2C3=C[C@H]4O[C@@]5(O[C@@](C)(CO)C[C@@H]5O)C(C)[C@@]4(O)[C@]3(C)[C@@H](O)CC2[C@]1(C)C7 (stereo partly drawn)	0.00217 µM and 0.00857 µM	0.00721 µM and 0.0301 µM	0.000181	0.00856	0.000355 µM and 0.000365 µM	–	0.000361 µM and 0.000576 µM	–	0.00539 µM and 0.00763 µM	0.141 µM and 0.227 µM	0.00282 µM and 0.00152 µM	0.0487 µM and 0.027 µM	0.000168	0.0303	0.0538	0.716	0.013 µM and 0.00425 µM	0.139 µM and 0.0237 µM	0.00805	0.846
COC(=O)c1c2c(c(C)[n+]([O-])c1C)C(=O)C(NCc1ccc(O)cc1)=CC2=O	0.579 µM	2.19 µM	1.83	6.51	2.46 µM	5.69	0.938 µM	2.24	1.73 µM	3.34 µM	0.715 µM	4.84 µM	2.11	4.87	1.75	3.19	1.77 µM	3.36 µM	1.7	3.22
Cc1[nH]nc(C(=O)N/N=C/c2ccccc2Cl)c1N=NN(C)C	–	> 100 µM	–	> 100	–	> 100	–	> 100	–	> 100 µM	–	> 100 µM	–	> 100	–	> 23.4	–	> 100 µM	–	> 100
NC(=O)c1csc(-c2ccc(CO)o2)n1	–	> 100 µM	–	> 100	–	> 100	–	> 100	–	> 100 µM	–	> 100 µM	–	> 100	–	> 100	–	> 100 µM	–	> 100
CN(C)CCCCNc1ccc(NCCCCN(C)C)c2c1C(=O)c1c(O)ccc(O)c1C2=O	13.6 µM	28.6 µM	1.72	5.01	1.73 µM	4.12	1.42 µM	2.73	1.81 µM	3.82 µM	1.19 µM	2.86 µM	1.76	3.14	1.29	2.55	1.66 µM	3.14 µM	1.61	2.96
C=CC(=O)N1CCC[C@@H](n2nc(-c3ccc(Oc4ccccc4)cc3)c3c(N)ncnc32)C1	> 10 µM	> 10 µM	> 10	> 10	> 5.51 µM	> 10	> 5.39 µM	> 10	0.396 µM	> 10 µM	> 7.23 µM	> 10 µM	> 4.5	> 10	3.03	> 10	> 10 µM	> 10 µM	0.669	> 10
